The subject of one test is factor IIa. Put plainly: antifactor IIa activity. The test is classed as biochemical. The settings on record: definition of tafoxiparin.
A short description of a further test: anticoagulant activity. The settings on record: definition of DF01.

Sequence of factor IIa (P01008 33-464): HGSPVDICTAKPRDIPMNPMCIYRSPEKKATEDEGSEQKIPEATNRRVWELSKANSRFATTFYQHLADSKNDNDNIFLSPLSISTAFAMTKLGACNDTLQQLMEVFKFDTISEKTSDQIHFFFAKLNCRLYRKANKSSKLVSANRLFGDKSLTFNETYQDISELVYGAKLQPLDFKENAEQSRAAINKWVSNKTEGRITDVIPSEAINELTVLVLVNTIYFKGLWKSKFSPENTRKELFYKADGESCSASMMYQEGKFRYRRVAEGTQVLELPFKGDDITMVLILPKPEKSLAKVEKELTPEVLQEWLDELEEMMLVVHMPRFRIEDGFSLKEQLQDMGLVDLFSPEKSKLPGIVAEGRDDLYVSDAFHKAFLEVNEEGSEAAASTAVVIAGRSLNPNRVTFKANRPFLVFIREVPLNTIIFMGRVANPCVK

Take tafoxiparin: the “antifactor IIa activity” value in the test on factor IIa is “less than 10 IU/mg”. Besides, the anticoagulant activity result in “anticoagulant activity” is “essentially no anticoagulant activity”.
